Assays:
endogenous TFEB = assay: TFEB nuclear translocation, immunocytochemistry high-content imaging; type: cell-based; settings: PKIS2 primary screening
endogenous TFE3 = assay: TFE3 nuclear translocation, immunocytochemistry high-content imaging; type: cell-based; settings: PKIS2 primary screening
SH-SY5Y cells [1] = settings: PKIS2 primary screening; for DQ Intensity: DQ Red BSA intensity; for DQ Spot: DQ Red BSA spot count
Description: The PKIS2 Library was supplied by The Structural Genomics Consortium at the University of North Carolina at Chapel Hill.

SH-SY5Y cells [2] = assay: AK (adenylate kinase) release ToxiLight cytotoxicity assay; settings: PKIS2 primary screening; note: reference of the scale not given here
SH-SY5Y cells [3] = assay: Nuclear count from microscopy images (cellular growth and toxicity); settings: PKIS2 primary screening; note: reference of the scale not given here
Throughout, for DQ Intensity: reference of the scale not given here.
Throughout, for DQ Spot: reference of the scale not given here.

| Compound | TFEB % (endogenous TFEB) [%] | TFE3 % (endogenous TFE3) [%] | DQ Intensity (SH-SY5Y cells [1]) | DQ Spot (SH-SY5Y cells [1]) | AK (SH-SY5Y cells [2]) | Nuclear Count (SH-SY5Y cells [3]) |
| --- | --- | --- | --- | --- | --- | --- |
| CN(C)c1cc(-c2ccc3c(N)n[nH]c3c2)nc(N)n1 [GSK2219329] | 4.04 | 13.03 | 87.81 | 98.17 | 83.85 | 85.79 |
| CC(C)Nc1cc(-c2ccc3c(N)n[nH]c3c2)nc(N)n1 [GSK2221681] | 4.14 | 7.71 | 78.82 | 81.03 | 98.58 | 122.37 |
| CNc1cc(-c2ccc3c(N)n[nH]c3c2)nc(N)n1 [GSK2224810] | 4.15 | 7.03 | 93.32 | 95.12 | 132.47 | 109.90 |
| Nc1nc(Nc2ccccc2)cc(-c2ccc3c(N)n[nH]c3c2)n1 [GSK2225749] | 8.82 | 13.67 | 84.54 | 97.02 | 135.05 | 92.29 |
| Nc1nc(-c2ccc3c(N)n[nH]c3c2)cc(N2CCCC2)n1 [GSK2227430] | 3.47 | 14.08 | 87.93 | 104.79 | 104.62 | 85.02 |
| Nc1nc(-c2ccc3c(N)n[nH]c3c2)cc(N2CCCCC2)n1 [GSK2228768] | 3.41 | 12.52 | 114.62 | 125.41 | 117.34 | 85.37 |
| CC(C)c1cc(-c2ccc3c(N)n[nH]c3c2)nc(N)n1 [GSK2250882] | 3.86 | 20.48 | 90.98 | 110.65 | 82.41 | 92.23 |
| C[C@@H]1CCCCN1c1cc(-c2ccc3c(N)n[nH]c3c2)nc(N)n1 [GSK2258759] | 3.40 | 12.52 | 61.15 | 84.49 | 88.63 | 88.84 |
| C[C@H]1CC[C@@H](C(=O)Nc2ccccc2)CN1c1cc(-c2ccc3c(N)n[nH]c3c2)nc(N)n1 [GSK2283293] | 5.47 | 11.00 | 68.06 | 92.27 | 101.77 | 95.91 |
| C[C@@H]1CC[C@@H](C(=O)Nc2ccccc2)CN1c1cc(-c2ccc3c(N)n[nH]c3c2)nc(N)n1 [GSK2286062] | 4.27 | 8.18 | 74.11 | 77.23 | 87.26 | 138.15 |
| CC(C)(C)OC(=O)NC1CCCN(c2cc(-c3ccc4c(N)n[nH]c4c3)nc(N)n2)C1 (stereo not drawn) [GSK2286096] | 2.89 | 7.82 | 137.35 | 108.17 | 116.95 | 128.62 |
| Nc1nc(-c2ccc3c(N)n[nH]c3c2)cc(N2CCCC(NC(=O)c3ccccc3)C2)n1 (stereo not drawn) [GSK2286775] | 4.25 | 13.75 | 67.10 | 83.48 | 119.49 | 104.24 |
| Nc1nc(-c2ccc3c(N)n[nH]c3c2)cc(N2CCC[C@@H](C(=O)Nc3ccccc3)C2)n1 [GSK2288359] | 6.39 | 14.08 | 83.69 | 103.68 | 96.03 | 88.88 |
| C[C@@H]1CC[C@H](C(=O)NC2CCCCC2)CN1c1cc(-c2ccc3c(N)n[nH]c3c2)nc(N)n1 [GSK2291363] | 3.73 | 16.02 | 117.06 | 112.54 | 87.12 | 117.58 |
| CNc1nc(-c2ccc3c(N)n[nH]c3c2)cc(N2C[C@@H](C(=O)Nc3ccccc3)CC[C@H]2C)n1 [GSK2298859] | 6.90 | 12.86 | 117.75 | 109.70 | 105.92 | 105.37 |
| CNc1nc(-c2ccc3c(N)n[nH]c3c2)cc(N2C[C@@H](C(=O)NC3CCCCC3)OC[C@H]2C)n1 [GSK2375584] | 4.51 | 6.46 | 111.29 | 104.60 | 76.99 | 127.70 |
| CC[C@@H]1CO[C@H](C(=O)Nc2ccccc2)CN1c1cc(-c2ccc3c(N)n[nH]c3c2)nc(NC)n1 [GSK2376236] | 3.52 | 8.81 | 102.90 | 87.99 | 114.69 | 121.19 |

| Compound | TFEB % (endogenous TFEB) [%] | TFE3 % (endogenous TFE3) [%] | DQ Intensity (SH-SY5Y cells [1]) | DQ Spot (SH-SY5Y cells [1]) | AK (SH-SY5Y cells [2]) | Nuclear Count (SH-SY5Y cells [3]) |
| --- | --- | --- | --- | --- | --- | --- |
| Cc1cc(-c2ccc3c(c2)CC[C@@H](N[C@@H](C)c2ccccc2)C3)cnc1N [GW412617] | 15.77 | 41.99 | 86.08 | 45.16 | 35.11 | 101.83 |
| Cc1cc(NCC(c2ccccc2)c2ccccc2)nc(NCc2ccc(C(F)(F)F)cc2)n1 [GW497681] | 10.26 | 31.99 | 118.39 | 90.21 | 143.14 | 83.96 |
| Cc1ccc(Nc2ccnc(Nc3ccc4c(c3)CS(=O)(=O)C4)n2)cc1O [GW579362] | 7.59 | 18.94 | 160.36 | 117.73 | 117.18 | 72.17 |
| Cc1ccc(Nc2ccnc(Nc3ccc(C)c(F)c3)n2)cc1O [GW582868] | 8.86 | 12.77 | 80.99 | 94.80 | 95.37 | 87.67 |
| CCS(=O)(=O)c1ccc(OC)c(Nc2ncc(-c3ccc(F)cc3)o2)c1 [GW591947] | 4.85 | 8.80 | 82.17 | 99.73 | 64.95 | 114.66 |
| CC(C)S(=O)(=O)N1CCN(Cc2ccc3c(c2)nc(NC(=O)c2ccsc2)n3C[C@H](O)c2ccccc2)CC1 [GW635815] | 6.81 | 6.25 | 100.23 | 98.01 | 78.91 | 125.41 |
| N#CCc1ccc(Nc2nccc(Nc3ccc(Oc4ccccc4)cc3)n2)cc1 [GW639905] | 8.66 | 15.01 | 108.02 | 113.65 | 115.45 | 107.11 |
| COC(=O)Nc1nc2ccc(Oc3ccc(NC(=O)Nc4cc(C(F)(F)F)ccc4F)cc3)cc2[nH]1 [GW654607] | 5.38 | 33.87 | 53.63 | 73.16 | 90.67 | 81.29 |
| NC(=O)c1cccc(Nc2nccc(Nc3ccc(Oc4cccc(Cl)c4)c(Cl)c3)n2)c1 [GW659008] | 11.92 | 11.36 | 100.37 | 103.30 | 92.69 | 86.88 |
| NC(=O)c1cccc(Nc2nccc(Nc3ccc(Oc4c(Cl)cccc4Cl)c(Cl)c3)n2)c1 [GW659009] | 6.80 | 20.40 | 60.26 | 79.24 | 74.50 | 101.88 |
| O=C(NCCCN1CCOCC1)c1cccc(Nc2nccc(Nc3ccc(Oc4ccccc4)cc3)n2)c1 [GW663929] | 4.62 | 16.30 | 88.80 | 80.91 | 108.46 | 103.04 |
| COC(=O)Nc1nc2ccc(Oc3ccc(CC(=O)Nc4cc(C(F)(F)F)ccc4F)cc3)cc2[nH]1 [GW680903] | 2.10 | 12.77 | 59.92 | 85.78 | 72.57 | 109.57 |
| COC(=O)Nc1nc2ccc(Oc3ccc(NC(=O)Nc4cc(C(F)(F)F)ccc4F)cn3)cc2[nH]1 [GW681170] | 3.10 | 18.59 | 102.17 | 112.93 | 96.18 | 116.32 |
| Cc1n[nH]c2cc(Nc3ccnc(Nc4cccc(CN5CCOCC5)c4)n3)ccc12 [GW682569] | 6.60 | 9.15 | 93.91 | 112.57 | 83.50 | 85.02 |
| O=C(Nc1ccc(Oc2ccc3nc(NC(=O)c4ccco4)[nH]c3c2)cc1)Nc1cc(C(F)(F)F)ccc1F [GW683134] | 14.35 | 30.65 | 82.17 | 71.77 | 83.90 | 71.64 |
| COC(=O)Nc1nc2ccc(Oc3ccc(NC(=O)Nc4cc(C(F)(F)F)ccc4F)cc3)cc2n1C [GW692089] | 7.12 | 18.60 | 156.96 | 122.99 | 128.42 | 60.83 |
| COC(=O)Nc1nc2ccc(Oc3ccc(NC(=O)Nc4cc(C(F)(F)F)ccc4Cl)cc3)cc2[nH]1 [GW697465] | 5.88 | 30.84 | 71.39 | 100.12 | 89.89 | 70.87 |

— PMC9851200, “Multiparameter phenotypic screening for endogenous TFEB and TFE3 translocation identifies novel chemical series modulating lysosome function” (Autophagy, 2022)
